Laboratory results taken from PubChem BioAssay (NCI).
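Each compound was tested at five concentrations against cells in 96-well plates for 48 hours. TGI: concentration producing complete growth inhibition.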

Experiments:
Assay in all cases: growth of human tumour cells (NCI), 48 h
NCI/ADR-RES ovarian = system: NCI/ADR-RES ovarian
UO-31 renal = system: UO-31 renal
SR leukemia = system: SR leukemia
786-0 renal = system: 786-0 renal
SNB-75 CNS = system: SNB-75 CNS
HCT-116 colon = system: HCT-116 colon
HS 578T breast = system: HS 578T breast
BT-549 breast = system: BT-549 breast
NCI-H522 lung = system: NCI-H522 lung
KM12 colon = system: KM12 colon
MDA-MB-231 breast = system: MDA-MB-231 breast
SK-MEL-5 melanoma = system: SK-MEL-5 melanoma
RXF 393 renal = system: RXF 393 renal
HL-60(TB) leukemia = system: HL-60(TB) leukemia
SF-295 CNS = system: SF-295 CNS
HOP-92 NSCLC = system: HOP-92 NSCLC
T-47D breast = system: T-47D breast
SF-539 CNS = system: SF-539 CNS
CAKI-1 renal = system: CAKI-1 renal
RPMI-8226 leukemia = system: RPMI-8226 leukemia
HCC-2998 colon = system: HCC-2998 colon
ACHN renal = system: ACHN renal
MDA-N = system: MDA-N
SW-620 colon = system: SW-620 colon
EKVX NSCLC = system: EKVX NSCLC
OVCAR-4 ovarian = system: OVCAR-4 ovarian
MCF7 breast = system: MCF7 breast
IGROV1 ovarian = system: IGROV1 ovarian
MOLT-4 leukemia = system: MOLT-4 leukemia
NCI-H460 lung = system: NCI-H460 lung
OVCAR-8 ovarian = system: OVCAR-8 ovarian
A549 NSCLC = system: A549 NSCLC
SNB-19 CNS = system: SNB-19 CNS
UACC-62 melanoma = system: UACC-62 melanoma
MALME-3M melanoma = system: MALME-3M melanoma
K-562 leukemia = system: K-562 leukemia
DU-145 prostate = system: DU-145 prostate
SF-268 CNS = system: SF-268 CNS
M14 melanoma = system: M14 melanoma
NCI-H23 lung = system: NCI-H23 lung
SK-MEL-28 melanoma = system: SK-MEL-28 melanoma
SK-OV-3 ovarian = system: SK-OV-3 ovarian
UACC-257 melanoma = system: UACC-257 melanoma
LOX IMVI melanoma = system: LOX IMVI melanoma
PC-3 prostate = system: PC-3 prostate
NCI-H226 lung = system: NCI-H226 lung
HOP-62 NSCLC = system: HOP-62 NSCLC
TK-10 renal = system: TK-10 renal
CCRF-CEM leukemia = system: CCRF-CEM leukemia
COLO 205 colon = system: COLO 205 colon
MDA-MB-435 = system: MDA-MB-435
HCT-15 colon = system: HCT-15 colon
HT29 colon = system: HT29 colon
SN12C renal = system: SN12C renal
SK-MEL-2 melanoma = system: SK-MEL-2 melanoma
OVCAR-3 ovarian = system: OVCAR-3 ovarian
U251 CNS = system: U251 CNS
OVCAR-5 ovarian = system: OVCAR-5 ovarian
A498 renal = system: A498 renal

Compound `CSC1NNC2(C(=O)N1)c1ccccc1-c1ccccc12` (configuration not stated) has a TGI (NCI/ADR-RES ovarian) of over 10 µM, a TGI (UO-31 renal) of over 10 µM and a TGI (SR leukemia) of over 10 µM. The TGI (786-0 renal) was over 10 µM, the TGI (SNB-75 CNS) was over 10 µM and the TGI (HCT-116 colon) was over 10 µM. The TGI (HS 578T breast) was over 10 µM, the TGI (BT-549 breast) was over 10 µM and the TGI (NCI-H522 lung) was over 10 µM. For the same compound, the TGI (KM12 colon) was over 10 µM, the TGI (MDA-MB-231 breast) was over 10 µM and the TGI (SK-MEL-5 melanoma) was over 10 µM. For the same compound, the TGI (RXF 393 renal) was over 10 µM, the TGI (HL-60(TB) leukemia) was over 10 µM and the TGI (SF-295 CNS) was over 10 µM. It also gave a TGI (HOP-92 NSCLC) of over 10 µM, a TGI (T-47D breast) of over 10 µM and a TGI (SF-539 CNS) of over 10 µM. The TGI (CAKI-1 renal) was over 10 µM, the TGI (RPMI-8226 leukemia) was over 10 µM and the TGI (HCC-2998 colon) was over 10 µM. It also gave a TGI (ACHN renal) of over 10 µM, a TGI (MDA-N) of over 10 µM and a TGI (SW-620 colon) of over 10 µM. The TGI (EKVX NSCLC) was over 10 µM, the TGI (OVCAR-4 ovarian) was over 10 µM and the TGI (MCF7 breast) was over 10 µM. It also gave a TGI (IGROV1 ovarian) of over 10 µM, a TGI (MOLT-4 leukemia) of over 10 µM and a TGI (NCI-H460 lung) of over 10 µM. It also gave a TGI (OVCAR-8 ovarian) of over 10 µM, a TGI (A549 NSCLC) of over 10 µM and a TGI (SNB-19 CNS) of over 10 µM. It also gave a TGI (UACC-62 melanoma) of over 10 µM, a TGI (MALME-3M melanoma) of over 10 µM and a TGI (K-562 leukemia) of over 10 µM. It also gave a TGI (DU-145 prostate) of over 10 µM, a TGI (SF-268 CNS) of over 10 µM and a TGI (M14 melanoma) of over 10 µM. The TGI (NCI-H23 lung) was over 10 µM, the TGI (SK-MEL-28 melanoma) was over 10 µM and the TGI (SK-OV-3 ovarian) was over 10 µM. It also gave a TGI (UACC-257 melanoma) of over 10 µM, a TGI (LOX IMVI melanoma) of over 10 µM and a TGI (PC-3 prostate) of over 10 µM. For the same compound, the TGI (NCI-H226 lung) was over 10 µM, the TGI (HOP-62 NSCLC) was over 10 µM and the TGI (TK-10 renal) was over 10 µM. For the same compound, the TGI (CCRF-CEM leukemia) was over 10 µM, the TGI (COLO 205 colon) was over 10 µM and the TGI (MDA-MB-435) was over 10 µM. The TGI (HCT-15 colon) was over 10 µM, the TGI (HT29 colon) was over 10 µM and the TGI (SN12C renal) was over 10 µM.

In the case of `CC1(O)C(=O)OC2CC([C@]3(O)CCC4[C@@H]5C[C@H]6O[C@]67[C@@H](O)C=CC(=O)[C@]7(C)C5CC[C@@]43C)C1(C)C2` (some centres not stated), the TGI (NCI/ADR-RES ovarian) is reported as over 100 µM, the TGI (UO-31 renal) is reported as over 85.3 µM and the TGI (SR leukemia) is reported as 10.6 µM. It also gave a TGI (786-0 renal) of 25.6 µM, a TGI (SNB-75 CNS) of over 94.1 µM and a TGI (HCT-116 colon) of 23.1 µM. For the same compound, the TGI (SK-MEL-2 melanoma) was 28.6 µM, the TGI (HS 578T breast) was over 96.7 µM and the TGI (BT-549 breast) was 26.1 µM. It also gave a TGI (NCI-H522 lung) of 4.85 µM, a TGI (KM12 colon) of over 64.1 µM and a TGI (MDA-MB-231 breast) of 36 µM. It also gave a TGI (SK-MEL-5 melanoma) of 45.3 µM, a TGI (RXF 393 renal) of 13.2 µM and a TGI (HL-60(TB) leukemia) of 19.9 µM. The TGI (SF-295 CNS) was over 100 µM, the TGI (HOP-92 NSCLC) was 10.9 µM and the TGI (T-47D breast) was 18.5 µM. The TGI (SF-539 CNS) was 44.5 µM, the TGI (OVCAR-3 ovarian) was 35 µM and the TGI (CAKI-1 renal) was 25.4 µM. The TGI (RPMI-8226 leukemia) was 19.7 µM, the TGI (HCC-2998 colon) was over 100 µM and the TGI (ACHN renal) was 73.8 µM. The TGI (MDA-N) was 17.9 µM, the TGI (SW-620 colon) was 11.1 µM and the TGI (EKVX NSCLC) was over 100 µM. It also gave a TGI (OVCAR-4 ovarian) of 26.5 µM, a TGI (MCF7 breast) of over 33 µM and a TGI (IGROV1 ovarian) of over 31.6 µM. The TGI (MOLT-4 leukemia) was 31.6 µM, the TGI (NCI-H460 lung) was over 80.5 µM and the TGI (OVCAR-8 ovarian) was over 100 µM. It also gave a TGI (A549 NSCLC) of over 100 µM, a TGI (SNB-19 CNS) of over 100 µM and a TGI (UACC-62 melanoma) of 30.2 µM. The TGI (MALME-3M melanoma) was 16.6 µM, the TGI (K-562 leukemia) was over 31.6 µM and the TGI (DU-145 prostate) was 75.2 µM. The TGI (U251 CNS) was over 72.6 µM, the TGI (SF-268 CNS) was over 92 µM and the TGI (M14 melanoma) was 26.4 µM. The TGI (NCI-H23 lung) was 25.1 µM, the TGI (SK-MEL-28 melanoma) was 26 µM and the TGI (SK-OV-3 ovarian) was over 100 µM. For the same compound, the TGI (UACC-257 melanoma) was 26.6 µM, the TGI (LOX IMVI melanoma) was 15.7 µM and the TGI (PC-3 prostate) was 50.5 µM. It also gave a TGI (HOP-62 NSCLC) of over 100 µM, a TGI (OVCAR-5 ovarian) of 74.1 µM and a TGI (A498 renal) of over 100 µM. It also gave a TGI (TK-10 renal) of 23.2 µM, a TGI (CCRF-CEM leukemia) of 9.54 µM and a TGI (COLO 205 colon) of 20.7 µM. It also gave a TGI (MDA-MB-435) of 33.2 µM, a TGI (HCT-15 colon) of 51.9 µM and a TGI (HT29 colon) of 36.5 µM. For the same compound, the TGI (SN12C renal) was 63.4 µM.
